Measurements reported in patent US20240294478A1, “ANTI-CANCER COMPOUNDS AND METHODS OF USE” (YALE UNIVERSITY, priority 2021, published 2024).

Columns and labels:
LN229 MGMT+ shMLH1 cells = assay: Short-term viability assay, LN229 MGMT+ shMLH1; type: cell-based; details: Homo sapiens, LN-229, Table III, read-out: IC50 against LN229 cell lines, MGMT MMR−
Protocol: (§1) The activity of KL-50 in MGMT-LN229 cells engineered to lack expression of other key MMR proteins including MSH6, MLH1, PMS2, and MSH3 was also confirmed. Western blotting was performed in LN229 MGMT+/−cells with stable expression of shRNA targeting MSH6, MLH1, PMS2, or MSH3 to confirm depletion of the shRNA targets. In shMSH6 cells, there was reduced expression of MSH2, and in shMLH1 cells, there was loss of PMS2, due to destabilization in the setting of loss of their heterodimeric partners. GAPDH serves as loading control. […] Short-term viability assay curves for KL-50 in LN229 MGMT+/−, MMR+/shMSH6 cells. […] Short-term viability assay curves for KL-50 in LN229 MGMT+/−, MMR+/shMLH1 cells. […] Short-term viability assay curves for KL-50 in LN229 MGMT+/−, MMR+/shPMS2 cells. […] Short-term viability assay curves for KL-50 in LN229 MGMT+/−, MMR+/shMSH3 cells.
MMR Protein shRNA Knockdown. pGIPZ lentiviral shRNA vectors targeting MSH2, MSH6, MLH1, PMS2, and MSH3 were purchased from Horizon Discovery (Table IV). […]
Short-term Cell Viability Assay. […] Cells were imaged on a Cytation 3 imaging reader (BioTek) and quantified using CellProfiler software. For in vitro short-term growth delay experiments, IC50 values were determined from the nonlinear regression equation, [inhibitor] vs normalized response with variable slope.

LN229 MGMT− shMSH3 cells = assay: Short-term viability assay, LN229 MGMT- shMSH3; type: cell-based, human; details: for IC50: Homo sapiens, LN-229, Table III, read-out: IC50 against LN229 cell lines, MGMT− MMR−; for MGMT− RI: Table III
Protocol: as §1
(§2) MMR Protein shRNA Knockdown. pGIPZ lentiviral shRNA vectors targeting MSH2, MSH6, MLH1, PMS2, and MSH3 were purchased from Horizon Discovery (Table IV). Lentiviral particles were produced in HEK293T cells via co-transfection with lentiviral shRNA plasmid, pCMV-VSV-G envelope plasmid (Addgene, #8454) and psPAX2 packaging plasmid (Addgene, #12260), using Lipofectamine 3000 Reagent (Invitrogen, L3000001) per manufacturer's protocol. Viral particles were harvested 48 h post-transfection and used to transduce LN229 MGMT+/−cells in the presence of 8 μg/mL polybrene. Selection of pooled cells with lentiviral expression was established with 1 μg/mL puromycin 48 h post-transduction for 3 to 4 days. Single cell cloning was performed by limiting dilution and protein knockdown was confirmed by western blotting.
(§3) Short-term Cell Viability Assay. Cells were seeded in 96-well plates at 1000 or 2000 cells/well and allowed to adhere at 23° C. for 60 min and then incubated overnight at 37° C. Cells were treated with indicated concentrations of compounds in triplicate for 4-6 days prior to fixation with 3.7% paraformaldehyde and nuclear staining with 1 μg/mL Hoechst 33342 dye. Cells were imaged on a Cytation 3 imaging reader (BioTek) and quantified using CellProfiler software. For in vitro short-term growth delay experiments, IC50 values were determined from the nonlinear regression equation, [inhibitor] vs normalized response with variable slope.

LN229 MGMT− shMSH6 cells = assay: Short-term viability assay, LN229 MGMT- shMSH6; type: cell-based, human; details: for IC50: Homo sapiens, LN-229, Table III, read-out: IC50 against LN229 cell lines, MGMT− MMR−; for MGMT− RI: Table III
Protocol: as §1, §2, §3

HCT116 MLH1−/− cells = assay: Short-term viability assay, HCT116 MLH1-/- cells +/- O6BG; type: cell-based, human; details: with or without 10 μM O6BG pre-treatment
Protocol: FIG. 1B: Short-term viability assay curves for KL-50 in DLD1 MSH6-deficient cells pre-treated with 0.01% DMSO control (CTR) or 10 μM O^6BG (+O^6BG) for 1 h prior to KL-50 addition. […] Short-term viability assay curves for (FIG. 1E) KL-50 in HCT116 MLH1−/−cells or (FIG. 1F) HCT116 cells complemented with chromosome 3 carrying wildtype MLH1 (+Chr3) pre-treated with 0.01% DMSO control or 10 μM O^6BG (+O^6BG) for 1 h prior to KL-50 addition. […] For these figures, points, mean; error bars, SD; n>3 technical replicates.
as §3

Structure (SMILES): Cn1nnc2c(C(N)=O)ncn2c1=O [TMZ, 4-methyl-5-oxo-2,3,4,6,8-pentazabicyclo[4.3.0]nona-2,7,9-triene-9-carboxamide, reference compound]
- IC50 (LN229 MGMT+ shMLH1 cells): 769 ± 100 µM
- IC50 (LN229 MGMT− shMSH3 cells): 3.1 ± 0.6 µM
- MGMT− RI (LN229 MGMT− shMSH3 cells): 0.6
- IC50 (LN229 MGMT− shMSH6 cells): 950 ± 68 µM
- MGMT− RI (LN229 MGMT− shMSH6 cells): 186
- cytotoxicity in HCT116 MLH1-deficient cells (HCT116 MLH1−/− cells): inactive

Structure (SMILES): NC(=O)c1ncn2c(=O)n(CCF)nnc12 [KL-50]
- IC50 (LN229 MGMT+ shMLH1 cells): 252 ± 28 µM
- IC50 (LN229 MGMT− shMSH3 cells): 7.9 ± 0.3 µM
- MGMT− RI (LN229 MGMT− shMSH3 cells): 0.6
- IC50 (LN229 MGMT− shMSH6 cells): 6.6 ± 0.4 µM
- MGMT− RI (LN229 MGMT− shMSH6 cells): 0.5
- cytotoxicity in HCT116 MLH1-deficient cells (HCT116 MLH1−/− cells): induced selective tumor cell killing specifically in the setting of O^6BG-induced MGMT suppression
